Assay results published in ChEMBL document CHEMBL1145599, “A novel pyrene-guanidiniocarbonyl-pyrrole cation efficiently differentiates between ds-DNA and ds-RNA by two independent, sensitive spectroscopic methods” (Bioorg Med Chem Lett, 2008).

Assays:
[1] = Binding affinity to polydA-polydT DNA by thermal denaturation assay
DNA = assay: Binding affinity to calf thymus DNA by thermal denaturation assay; assay type: nucleic-acid assay; conditions: Bos taurus
Nucleic Acid [2] = assay: Binding affinity to polyA-polyU double stranded RNA by thermal denaturation assay; assay type: nucleic-acid assay
Nucleic Acid [3] = assay: Binding affinity to polyG-polyC double stranded RNA by thermal denaturation assay; assay type: nucleic-acid assay

## N=C(N)NC(=O)c1ccc(C(=O)NCCCCNC(=O)c2ccc3ccc4cccc5ccc2c3c45)[nH]1
[1]
  log K: 5.1
DNA
  log K: 5.1
  ΔTm: 7.3 °C
Nucleic Acid [2]
  log K: 5.1
  ΔTm: -1.5 °C
Nucleic Acid [3]
  log K: 5.1
